The values below come from patent US8551721B2, “Bioluminescent detection of cyanohydroxy benzothiazole compounds” (Promega Corporation, priority 2008, dated 2013).

For experiment [1], the system named is UGT activity in human liver microsomes (HLM). Description: Inhibition of UGT activity in human liver microsomes by diclofenac (titration), probe compound 3138. The format is biochemical. The note with it: 0.1 mg/mL HLM, 50 μM compound 3138, 15 minutes at 37° C.; read-out: EC50, inhibition of HLM utilization of compound 3138. The procedure:
The invention includes a method of determining activity of the uridine 5′-diphospho-glucuronosyltransferase (UDP-glucuronosyltransferase, or UGT) family enzymes in vitro. Briefly, UGT enzymes from overexpressed insect microsomes (Supersomes™, BD Gentest™) or animal tissue microsomes (Xenotech, BD Gentest™) were incubated with a cyanobenzothiazole substrate of the invention and the cofactor UDP-glucuronic acid (UDPGA) at 37° C. in buffer at physiological pH containing MgCl2 and alamethicin (typically, 50 mM TES, pH 7.5, 8 mM MgCl2, 4 mM UDPGA (Sigma) and 25 μg/mL alamethicin (Sigma)). […]
(§1) During this incubation, the cysteine reacts with the cyanobenzathiozole substrate to yield a D-luciferin derivative. […] Therefore, activity of the UGT enzyme can be measured by analyzing the difference (lower or no output) in relative light units (RLU) of a sample in which glucuronidation occurs compared to a sample that was run under the same conditions with no added UDPGA cofactor.
All reactions contained 50 mM TES, pH 7.5, 8 mM MgCl2, 25 μg/mL alamethicin, 0.1 mg/mL HLM, and 50 μM compound 3138, plus or minus 4 mM UDPGA. […] After 20 minutes at room temperature, RLU were read on a luminometer.
A general note: Liver microsomes are a subcellular fraction often used to study metabolism.

The subject of a further experiment is UGT isozymes. The settings on record: cited from earlier work.
Another experiment concerns the target T1, UGT 1A1 (Homo sapiens, UniProt P22309).
T1 construct: purchased BD Gentest; host or cells: insect cells (microsomes)
T1 sequence (P22309 26-533): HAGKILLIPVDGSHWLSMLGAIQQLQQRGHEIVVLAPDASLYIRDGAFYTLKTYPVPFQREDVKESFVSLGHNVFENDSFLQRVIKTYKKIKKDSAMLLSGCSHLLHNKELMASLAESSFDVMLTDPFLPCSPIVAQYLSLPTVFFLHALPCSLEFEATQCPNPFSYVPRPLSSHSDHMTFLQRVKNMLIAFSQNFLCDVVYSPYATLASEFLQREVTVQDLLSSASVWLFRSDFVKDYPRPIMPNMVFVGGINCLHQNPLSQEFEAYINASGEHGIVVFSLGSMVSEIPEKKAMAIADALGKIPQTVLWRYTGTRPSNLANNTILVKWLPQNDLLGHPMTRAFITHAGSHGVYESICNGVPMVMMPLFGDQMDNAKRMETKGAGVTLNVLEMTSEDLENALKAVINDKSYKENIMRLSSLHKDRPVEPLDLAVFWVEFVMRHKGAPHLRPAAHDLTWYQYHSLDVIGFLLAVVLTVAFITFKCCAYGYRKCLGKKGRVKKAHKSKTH
Description: Inhibition of recombinant UGT 1A1 supersomes by diclofenac, probe compound 3138. The format is biochemical. The note with it: 0.1 mg/mL Supersomes, 20 μM compound 3138, 90 minutes at 37° C. The method, then:
The invention includes a method of determining activity of the uridine 5′-diphospho-glucuronosyltransferase (UDP-glucuronosyltransferase, or UGT) family enzymes in vitro. […] Following the UGT enzyme reaction, an equal volume of P450-Glo Luciferin Detection Reagent (Promega) containing 15-30 mM D-cysteine-HCl.H2O (Sigma) was added and the plate was mixed and incubated at room temperature, typically for 20-30 minutes. P450-Glo Luciferin Detection Reagent can be prepared by dissolving a vial of Promega Luciferin Detection Reagent (Promega Part #V859B) with a vial of Promega P450-Glo Buffer (Promega Part #V865B).
as §1

By EC50 is commonly meant the concentration giving half of the maximal effect. Usually IC50 stands for the concentration that gives 50% inhibition. Turning to `O=C(O)Cc1ccccc1Nc1c(Cl)cccc1Cl` [Diclofenac], the concentration for a half-maximal effect (EC50) in experiment [1] came out at 60 µM. Besides, in the experiment with UGT isozymes (isozymes currently reported in the literature to be modulated by the compound), the “Isozymes Modulated” value was “Inhibits most isozymes”. The “inhibition of UGT isozymes as reported in the literature” value in the experiment with UGT isozymes (literature report) is “reported to inhibit UGT 1A1, 1A3, 1A6, 1A7, 1A8, 1A9, 1A10, 2B7, 2B15, and 2B17”. In addition, the 50% inhibitory concentration (IC50) on UGT 1A1 is 232 µM.
